Data on 3 compounds can be found in ChEMBL document CHEMBL3259629, “Discovery and optimization of piperidyl-1,2,3-triazole ureas as potent, selective, and in vivo-active inhibitors of α/β-hydrolase domain containing 6 (ABHD6)” (J Med Chem, 2013).

Structures are written as SMILES.

What all share (conditions): Neuro2a, 3 nM
The target of assay [1] is T1, Monoacylglycerol lipase ABHD6 (Mus musculus) (UniProt Q8R2Y0).
T1 sequence (whole entry): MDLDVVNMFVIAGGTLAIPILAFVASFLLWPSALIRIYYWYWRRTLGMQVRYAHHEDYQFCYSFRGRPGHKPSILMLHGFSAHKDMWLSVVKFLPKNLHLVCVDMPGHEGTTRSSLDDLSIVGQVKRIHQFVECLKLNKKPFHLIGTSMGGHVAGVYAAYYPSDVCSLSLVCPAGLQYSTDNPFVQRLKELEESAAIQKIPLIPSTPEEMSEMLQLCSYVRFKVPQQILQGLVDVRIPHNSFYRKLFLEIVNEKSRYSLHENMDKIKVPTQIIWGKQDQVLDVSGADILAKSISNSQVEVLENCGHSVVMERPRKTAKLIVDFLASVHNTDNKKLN
Description: Inhibition of Abhd6 in mouse Neuro2a cells at 3 nM after 4 hrs by ABPP-SILAC assay

The target of assay [2] is Dipeptidyl peptidase 2 (Mus musculus) (UniProt Q9ET22).
Sequence of Dipeptidyl peptidase 2 (Mus musculus) (Q9ET22 whole entry): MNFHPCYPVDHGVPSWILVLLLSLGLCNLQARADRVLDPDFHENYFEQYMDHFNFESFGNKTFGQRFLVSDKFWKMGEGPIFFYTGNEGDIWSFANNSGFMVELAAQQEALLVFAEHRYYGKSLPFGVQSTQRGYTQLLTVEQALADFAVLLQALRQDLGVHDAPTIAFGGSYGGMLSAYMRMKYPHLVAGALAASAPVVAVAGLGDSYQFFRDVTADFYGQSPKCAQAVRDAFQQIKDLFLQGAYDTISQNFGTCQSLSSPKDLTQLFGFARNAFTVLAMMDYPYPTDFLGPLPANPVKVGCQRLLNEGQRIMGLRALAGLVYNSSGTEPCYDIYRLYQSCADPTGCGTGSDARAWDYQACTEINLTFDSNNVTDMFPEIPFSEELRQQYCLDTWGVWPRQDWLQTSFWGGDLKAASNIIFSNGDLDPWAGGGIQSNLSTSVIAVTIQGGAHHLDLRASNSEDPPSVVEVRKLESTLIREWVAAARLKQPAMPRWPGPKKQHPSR
Description: Inhibition of Dpp7 in mouse Neuro2a cells at 3 nM after 4 hrs by ABPP-SILAC assay
Assay [3] has as its target T2, Acyl-coenzyme A thioesterase 1 (Mus musculus) (UniProt O55137).
T2 sequence (whole entry): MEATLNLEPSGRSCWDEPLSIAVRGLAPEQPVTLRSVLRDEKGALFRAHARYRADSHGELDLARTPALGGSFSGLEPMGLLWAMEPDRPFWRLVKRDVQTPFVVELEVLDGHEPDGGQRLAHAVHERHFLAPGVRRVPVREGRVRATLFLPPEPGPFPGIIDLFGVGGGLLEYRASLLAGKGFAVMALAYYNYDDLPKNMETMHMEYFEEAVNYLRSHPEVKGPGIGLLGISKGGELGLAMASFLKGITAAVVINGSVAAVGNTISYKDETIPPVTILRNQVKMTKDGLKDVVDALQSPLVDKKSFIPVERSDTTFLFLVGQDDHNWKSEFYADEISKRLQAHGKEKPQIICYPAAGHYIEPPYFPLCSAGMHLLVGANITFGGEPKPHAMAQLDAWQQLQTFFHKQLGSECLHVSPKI
Description: Inhibition of Acot1 in mouse Neuro2a cells at 3 nM after 4 hrs by ABPP-SILAC assay

In assay [4] the target is 1-acylglycerol-3-phosphate O-acyltransferase ABHD5 (Mus musculus) (UniProt Q9DBL9).
Sequence of 1-acylglycerol-3-phosphate O-acyltransferase ABHD5 (Mus musculus) (Q9DBL9 whole entry, looked up): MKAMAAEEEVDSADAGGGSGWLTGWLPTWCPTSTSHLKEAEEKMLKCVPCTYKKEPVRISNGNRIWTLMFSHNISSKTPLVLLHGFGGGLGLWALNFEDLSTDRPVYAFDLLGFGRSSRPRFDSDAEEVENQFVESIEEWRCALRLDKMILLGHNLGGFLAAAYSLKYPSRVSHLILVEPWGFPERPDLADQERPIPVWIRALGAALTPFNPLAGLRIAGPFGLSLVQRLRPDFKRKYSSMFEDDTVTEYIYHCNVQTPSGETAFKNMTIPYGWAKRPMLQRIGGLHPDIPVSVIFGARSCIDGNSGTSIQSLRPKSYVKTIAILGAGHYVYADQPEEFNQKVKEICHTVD
Description: Inhibition of Abhd5 in mouse Neuro2a cells at 3 nM after 4 hrs by ABPP-SILAC assay
For assay [5], the target named is T3, GPI inositol-deacylase (Mus musculus) (UniProt Q3UUQ7).
T3 sequence (whole entry): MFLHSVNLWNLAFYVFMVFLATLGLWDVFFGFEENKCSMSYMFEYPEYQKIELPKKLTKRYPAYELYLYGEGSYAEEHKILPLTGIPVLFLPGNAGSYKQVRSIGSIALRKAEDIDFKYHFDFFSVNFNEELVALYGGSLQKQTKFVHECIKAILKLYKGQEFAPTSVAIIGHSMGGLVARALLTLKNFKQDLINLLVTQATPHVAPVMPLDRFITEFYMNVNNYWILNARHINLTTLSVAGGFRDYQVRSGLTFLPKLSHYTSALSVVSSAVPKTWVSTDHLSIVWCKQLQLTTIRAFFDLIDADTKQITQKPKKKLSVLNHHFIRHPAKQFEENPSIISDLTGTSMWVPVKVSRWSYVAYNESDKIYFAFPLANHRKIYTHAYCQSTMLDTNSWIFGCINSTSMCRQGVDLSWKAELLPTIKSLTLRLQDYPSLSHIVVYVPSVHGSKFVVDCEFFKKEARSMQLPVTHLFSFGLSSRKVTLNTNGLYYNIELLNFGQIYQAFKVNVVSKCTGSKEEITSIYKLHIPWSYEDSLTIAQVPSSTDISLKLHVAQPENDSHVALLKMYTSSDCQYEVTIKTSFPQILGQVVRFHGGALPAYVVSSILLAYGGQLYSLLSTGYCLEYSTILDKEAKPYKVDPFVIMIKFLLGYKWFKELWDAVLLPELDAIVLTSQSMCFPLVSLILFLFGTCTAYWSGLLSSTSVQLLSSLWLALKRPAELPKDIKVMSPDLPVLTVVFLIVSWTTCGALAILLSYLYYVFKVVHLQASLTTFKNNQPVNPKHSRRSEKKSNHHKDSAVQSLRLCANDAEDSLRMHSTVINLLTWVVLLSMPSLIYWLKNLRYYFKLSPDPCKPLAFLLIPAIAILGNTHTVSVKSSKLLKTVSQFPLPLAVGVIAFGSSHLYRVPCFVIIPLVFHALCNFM
Description: Inhibition of Pgap1 in mouse Neuro2a cells at 3 nM after 4 hrs by ABPP-SILAC assay

The target in assay [6] is T4, Phosphatidylserine lipase ABHD16A (Mus musculus) (UniProt Q9Z1Q2).
T4 sequence (whole entry): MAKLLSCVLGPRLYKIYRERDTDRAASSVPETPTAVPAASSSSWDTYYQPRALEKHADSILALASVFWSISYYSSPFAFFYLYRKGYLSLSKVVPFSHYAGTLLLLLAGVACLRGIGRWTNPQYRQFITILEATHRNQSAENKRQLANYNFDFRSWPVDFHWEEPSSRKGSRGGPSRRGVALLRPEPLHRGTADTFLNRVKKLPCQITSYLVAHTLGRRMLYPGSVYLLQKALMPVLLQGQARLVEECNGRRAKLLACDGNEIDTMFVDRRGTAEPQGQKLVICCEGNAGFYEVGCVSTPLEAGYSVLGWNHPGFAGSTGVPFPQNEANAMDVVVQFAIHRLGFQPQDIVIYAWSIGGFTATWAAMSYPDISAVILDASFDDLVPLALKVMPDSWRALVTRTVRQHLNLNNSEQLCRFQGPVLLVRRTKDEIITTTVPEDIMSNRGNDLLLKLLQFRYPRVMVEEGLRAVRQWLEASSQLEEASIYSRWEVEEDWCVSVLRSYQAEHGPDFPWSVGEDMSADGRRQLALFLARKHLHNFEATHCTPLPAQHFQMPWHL
Description: Inhibition of Bat5 in mouse Neuro2a cells at 3 nM after 4 hrs by ABPP-SILAC assay

Assay [7] addresses Acyl-protein thioesterase 1 (Mus musculus) (UniProt P97823).
Description: Inhibition of Lypla1 in mouse Neuro2a cells at 3 nM after 4 hrs by ABPP-SILAC assay
The target of assay [8] is Tripeptidyl-peptidase 2 (Mus musculus) (UniProt Q64514).
Sequence of Tripeptidyl-peptidase 2 (Mus musculus) (Q64514 whole entry): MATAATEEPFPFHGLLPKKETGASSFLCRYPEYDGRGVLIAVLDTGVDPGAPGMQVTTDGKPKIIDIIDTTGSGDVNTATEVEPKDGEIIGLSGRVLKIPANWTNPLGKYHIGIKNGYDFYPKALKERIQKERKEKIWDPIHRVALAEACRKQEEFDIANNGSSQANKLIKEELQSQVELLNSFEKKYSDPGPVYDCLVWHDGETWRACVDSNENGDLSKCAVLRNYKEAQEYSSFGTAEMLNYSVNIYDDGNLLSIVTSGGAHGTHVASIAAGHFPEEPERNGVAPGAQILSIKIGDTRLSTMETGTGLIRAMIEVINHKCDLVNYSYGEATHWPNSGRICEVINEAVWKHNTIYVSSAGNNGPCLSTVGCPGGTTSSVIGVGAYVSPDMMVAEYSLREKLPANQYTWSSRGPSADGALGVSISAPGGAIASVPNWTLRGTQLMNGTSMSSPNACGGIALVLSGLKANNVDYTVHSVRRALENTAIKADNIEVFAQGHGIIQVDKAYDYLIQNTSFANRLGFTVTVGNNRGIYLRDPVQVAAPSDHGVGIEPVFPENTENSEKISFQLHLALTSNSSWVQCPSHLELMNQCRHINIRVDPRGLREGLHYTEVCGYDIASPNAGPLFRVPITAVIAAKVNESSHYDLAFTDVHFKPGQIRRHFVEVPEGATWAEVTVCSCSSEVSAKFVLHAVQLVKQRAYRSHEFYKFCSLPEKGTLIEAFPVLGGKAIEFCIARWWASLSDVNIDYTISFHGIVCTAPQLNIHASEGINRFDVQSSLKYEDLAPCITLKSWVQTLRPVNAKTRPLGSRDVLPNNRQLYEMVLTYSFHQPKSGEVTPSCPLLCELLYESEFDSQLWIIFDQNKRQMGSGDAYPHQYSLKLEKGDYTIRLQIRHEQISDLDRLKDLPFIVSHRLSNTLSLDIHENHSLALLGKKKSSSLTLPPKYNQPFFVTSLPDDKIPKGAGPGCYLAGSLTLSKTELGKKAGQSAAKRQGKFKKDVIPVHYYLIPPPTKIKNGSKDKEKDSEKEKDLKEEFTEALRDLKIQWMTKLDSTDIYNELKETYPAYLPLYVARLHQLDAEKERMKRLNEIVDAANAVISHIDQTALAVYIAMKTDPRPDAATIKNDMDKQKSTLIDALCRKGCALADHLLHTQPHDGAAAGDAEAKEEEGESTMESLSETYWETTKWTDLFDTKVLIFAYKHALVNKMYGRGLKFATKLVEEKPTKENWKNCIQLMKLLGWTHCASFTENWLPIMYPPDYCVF
Description: Inhibition of Tpp2 in mouse Neuro2a cells at 3 nM after 4 hrs by ABPP-SILAC assay
In assay [9] the target is Fatty acid synthase (Mus musculus) (UniProt P19096).
Sequence of Fatty acid synthase (Mus musculus) (P19096 whole entry): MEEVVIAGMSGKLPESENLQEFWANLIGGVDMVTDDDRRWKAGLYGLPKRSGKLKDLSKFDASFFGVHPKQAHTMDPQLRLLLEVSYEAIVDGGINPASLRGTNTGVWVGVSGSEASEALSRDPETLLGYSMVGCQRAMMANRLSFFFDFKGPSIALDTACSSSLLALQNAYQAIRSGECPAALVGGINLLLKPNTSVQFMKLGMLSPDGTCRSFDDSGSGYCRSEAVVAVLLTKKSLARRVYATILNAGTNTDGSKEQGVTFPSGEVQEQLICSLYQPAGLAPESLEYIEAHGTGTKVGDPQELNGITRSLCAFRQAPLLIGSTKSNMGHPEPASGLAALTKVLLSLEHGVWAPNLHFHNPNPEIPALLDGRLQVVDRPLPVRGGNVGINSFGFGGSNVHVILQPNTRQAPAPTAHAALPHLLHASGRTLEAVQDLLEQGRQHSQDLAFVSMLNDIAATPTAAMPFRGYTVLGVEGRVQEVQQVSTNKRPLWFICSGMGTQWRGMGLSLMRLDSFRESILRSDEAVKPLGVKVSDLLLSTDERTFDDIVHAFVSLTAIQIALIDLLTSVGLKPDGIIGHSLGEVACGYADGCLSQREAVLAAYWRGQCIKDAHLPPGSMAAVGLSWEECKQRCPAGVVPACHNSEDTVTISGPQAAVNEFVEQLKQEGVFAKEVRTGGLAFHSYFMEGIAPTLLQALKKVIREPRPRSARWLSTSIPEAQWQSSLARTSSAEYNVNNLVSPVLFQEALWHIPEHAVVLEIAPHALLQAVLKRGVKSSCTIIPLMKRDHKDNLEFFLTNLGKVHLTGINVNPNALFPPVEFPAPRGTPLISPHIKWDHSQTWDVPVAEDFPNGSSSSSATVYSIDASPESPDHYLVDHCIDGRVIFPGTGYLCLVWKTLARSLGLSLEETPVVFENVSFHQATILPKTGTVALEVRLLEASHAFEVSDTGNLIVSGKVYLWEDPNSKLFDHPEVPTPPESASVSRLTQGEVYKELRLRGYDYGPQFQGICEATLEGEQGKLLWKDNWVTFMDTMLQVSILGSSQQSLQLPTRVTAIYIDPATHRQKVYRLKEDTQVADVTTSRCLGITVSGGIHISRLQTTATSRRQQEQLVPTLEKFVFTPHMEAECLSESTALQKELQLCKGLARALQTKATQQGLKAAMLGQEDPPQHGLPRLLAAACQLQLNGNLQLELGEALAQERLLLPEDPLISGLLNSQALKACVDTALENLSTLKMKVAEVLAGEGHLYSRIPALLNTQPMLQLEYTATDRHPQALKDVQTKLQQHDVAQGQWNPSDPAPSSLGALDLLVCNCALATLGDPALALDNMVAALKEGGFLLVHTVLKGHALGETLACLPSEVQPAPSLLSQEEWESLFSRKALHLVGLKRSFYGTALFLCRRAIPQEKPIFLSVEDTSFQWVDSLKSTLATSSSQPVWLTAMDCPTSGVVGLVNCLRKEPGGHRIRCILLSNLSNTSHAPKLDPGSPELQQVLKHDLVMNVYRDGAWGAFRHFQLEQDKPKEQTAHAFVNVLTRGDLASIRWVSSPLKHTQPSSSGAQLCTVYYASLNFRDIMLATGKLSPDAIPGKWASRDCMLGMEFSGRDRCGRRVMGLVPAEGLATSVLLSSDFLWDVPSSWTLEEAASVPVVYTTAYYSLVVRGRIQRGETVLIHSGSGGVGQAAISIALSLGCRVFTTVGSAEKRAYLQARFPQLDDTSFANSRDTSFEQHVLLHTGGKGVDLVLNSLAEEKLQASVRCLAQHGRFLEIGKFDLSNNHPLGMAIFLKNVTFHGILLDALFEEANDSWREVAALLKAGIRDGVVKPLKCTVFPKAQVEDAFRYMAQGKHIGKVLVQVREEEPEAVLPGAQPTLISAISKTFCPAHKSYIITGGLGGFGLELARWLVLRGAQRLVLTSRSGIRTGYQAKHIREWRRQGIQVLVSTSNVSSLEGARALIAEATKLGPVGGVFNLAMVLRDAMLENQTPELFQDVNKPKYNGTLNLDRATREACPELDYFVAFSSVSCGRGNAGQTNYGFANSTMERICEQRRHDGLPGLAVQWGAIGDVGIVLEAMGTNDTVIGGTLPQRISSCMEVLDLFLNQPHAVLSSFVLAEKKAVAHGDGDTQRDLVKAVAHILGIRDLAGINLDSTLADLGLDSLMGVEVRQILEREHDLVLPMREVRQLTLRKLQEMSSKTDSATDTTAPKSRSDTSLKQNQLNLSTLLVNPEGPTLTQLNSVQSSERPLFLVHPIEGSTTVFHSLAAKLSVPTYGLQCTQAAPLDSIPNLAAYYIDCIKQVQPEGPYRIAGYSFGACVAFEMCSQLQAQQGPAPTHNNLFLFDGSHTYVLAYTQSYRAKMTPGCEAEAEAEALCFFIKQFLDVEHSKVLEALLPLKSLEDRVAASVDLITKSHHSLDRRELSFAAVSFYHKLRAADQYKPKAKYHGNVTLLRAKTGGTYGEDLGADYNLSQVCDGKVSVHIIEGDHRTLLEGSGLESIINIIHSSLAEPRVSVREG
Description: Inhibition of Fasn in mouse Neuro2a cells at 3 nM after 4 hrs by ABPP-SILAC assay
The target in assay [10] is T5, Protein ABHD13 (Mus musculus) (UniProt Q80UX8).
T5 sequence (whole entry): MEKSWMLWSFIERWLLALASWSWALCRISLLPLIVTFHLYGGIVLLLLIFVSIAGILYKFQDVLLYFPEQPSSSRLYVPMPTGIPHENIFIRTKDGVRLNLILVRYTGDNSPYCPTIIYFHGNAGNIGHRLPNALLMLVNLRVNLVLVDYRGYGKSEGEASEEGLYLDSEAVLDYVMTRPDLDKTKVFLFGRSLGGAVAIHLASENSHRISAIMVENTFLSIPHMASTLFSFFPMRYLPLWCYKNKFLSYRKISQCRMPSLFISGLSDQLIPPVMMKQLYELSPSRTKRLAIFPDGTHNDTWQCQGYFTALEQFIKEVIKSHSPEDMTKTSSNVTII
Description: Inhibition of Abhd13 in mouse Neuro2a cells at 3 nM after 4 hrs by ABPP-SILAC assay

Sequence of Acyl-protein thioesterase 1 (Mus musculus) (P97823 whole entry): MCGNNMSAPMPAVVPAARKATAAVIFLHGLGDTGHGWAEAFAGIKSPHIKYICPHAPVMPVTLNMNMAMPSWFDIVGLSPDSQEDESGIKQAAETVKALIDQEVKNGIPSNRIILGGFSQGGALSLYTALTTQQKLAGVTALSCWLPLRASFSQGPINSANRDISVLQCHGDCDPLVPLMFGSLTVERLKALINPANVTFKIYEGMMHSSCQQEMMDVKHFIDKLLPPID

`O=C(c1cccc(-c2ccc(-c3cn(C(=O)N4CCCCC4c4ccccc4)nn3)cc2)c1)N1CCCCC1` (racemic): the inhibition in assay [1] was above 80%; in assay [2], below 50%; in assay [3], below 50%; in assay [4], below 50%; in [5], below 50%; in assay [6], below 50%. The inhibition in assay [7], in assay [8], in assay [9] and in [10] was below 50% each time.
For the compound `O=C(O)c1cccc(-c2ccc(-c3cn(C(=O)N4CCCCC4Cc4ccccc4)nn3)cc2)c1` (racemic), the inhibition was above 90% in assay [1]; below 50% in assay [2]; below 50% in assay [3]; below 50% in assay [4]; below 50% in assay [5]; below 50% in assay [6]. In addition, the inhibition in assay [7], in assay [8], in assay [9] and in assay [10] was below 50% in each case.
For `O=C(N1CCCCC1c1ccccc1)n1cc(-c2ccc(-c3cccc(CO)c3)cc2)nn1` (racemic), the inhibition was above 90% in assay [1]; below 50% in assay [2]; below 50% in [3]; below 50% in assay [4]; below 50% in assay [5]; below 50% in [6]. Moreover, the inhibition in [7], in assay [8], in [9] and in assay [10] was below 50% each time.
